Measurements: patent publication US20120010075A1 (priority 2009, published 2012)
Like-named read-outs stand apart in the source and are kept apart here.

How the values were obtained:
Phytophthora infestans = type: in vivo, Phytophthora infestans on tomato; conditions: hydrazone 50 ppm + 50 μM CuCl2.2H2O, applied 24 h before inoculation, assessed 7 days after inoculation, tomato
[1] = system: Leptosphaeria nodorum (LEPTNO); assay: In vitro fungitoxicity of hydrazones with and without copper towards Leptosphaeria nodorum (Example 26); type: cell-based; conditions: for inhibition of growth at 0.05 µg/mL: Parastagonospora nodorum, 72 h, read-out: LEPTNO % Inhn. Minus Copper Observed; for LEPTNO % Inhn. Plus Copper Observed: copper-plus medium (CuCl2.2H2O)
[2] = compound 0.05 μg/mL, copper-minus medium, 72 h at 25° C.
[3] = compound 0.05 μg/mL, 72 h at 25° C.

O=C(N/N=C/c1cccc([N+](=O)[O-])c1O)c1ccccc1 [Example 145]
TLB % Control (Phytophthora infestans): 55.9%
inhibition of growth at 0.05 µg/mL [1, 2]: 2.4%
LEPTNO % Inhn. Plus Copper Observed [1, 3]: 97.2%

COc1ccc(/C=N/NC(=O)c2ccccc2)c(O)c1 [Example 147]
TLB % Control (Phytophthora infestans): 13.5%
inhibition of growth at 0.05 µg/mL [1, 2]: 0%
LEPTNO % Inhn. Plus Copper Observed [1, 3]: 95.6%

O=C(N/N=C/c1cc(Br)ccc1O)c1ccccc1 [Example 148]
TLB % Control (Phytophthora infestans): 72.9%
inhibition of growth at 0.05 µg/mL [1, 2]: 15.4%
LEPTNO % Inhn. Plus Copper Observed [1, 3]: 97.9%

COc1cccc(/C=N/NC(=O)c2ccccc2)c1O [Example 149]
TLB % Control (Phytophthora infestans): 22.1%
inhibition of growth at 0.05 µg/mL [1, 2]: 0%
LEPTNO % Inhn. Plus Copper Observed [1, 3]: 97.1%

O=C(N/N=C/c1cc(Cl)cc([N+](=O)[O-])c1O)c1ccccc1 [Example 150]
TLB % Control (Phytophthora infestans): 87.5%
inhibition of growth at 0.05 µg/mL [1, 2]: 10%
LEPTNO % Inhn. Plus Copper Observed [1, 3]: 97.5%

O=C(N/N=C/c1cc([N+](=O)[O-])ccc1O)c1ccccc1 [Example 152]
TLB % Control (Phytophthora infestans): 26.0%
inhibition of growth at 0.05 µg/mL [1, 2]: 0%
LEPTNO % Inhn. Plus Copper Observed [1, 3]: 89.1%

O=C(N/N=C/c1cc([N+](=O)[O-])cc(Br)c1O)c1ccccc1 [Example 153]
TLB % Control (Phytophthora infestans): 34.6%
inhibition of growth at 0.05 µg/mL [1, 2]: 0%
LEPTNO % Inhn. Plus Copper Observed [1, 3]: 97.0%

COc1ccc(O)c(/C=N/NC(=O)c2ccccc2)c1 [Example 154]
TLB % Control (Phytophthora infestans): 36.6%
inhibition of growth at 0.05 µg/mL [1, 2]: 3.4%
LEPTNO % Inhn. Plus Copper Observed [1, 3]: 70.7%

COc1cc([N+](=O)[O-])cc(/C=N/NC(=O)c2ccccc2)c1O [Example 155]
TLB % Control (Phytophthora infestans): 32.0%
inhibition of growth at 0.05 µg/mL [1, 2]: 1.9%
LEPTNO % Inhn. Plus Copper Observed [1, 3]: 78.3%

COc1cc(Br)cc(/C=N/NC(=O)c2ccccc2)c1O [Example 156]
TLB % Control (Phytophthora infestans): 51.5%
inhibition of growth at 0.05 µg/mL [1, 2]: 7.4%
LEPTNO % Inhn. Plus Copper Observed [1, 3]: 94.8%

Cc1ccccc1C(=O)N/N=C/c1cc(Cl)ccc1O [Example 157]
TLB % Control (Phytophthora infestans): 61.8%
inhibition of growth at 0.05 µg/mL [1, 2]: 7.8%
LEPTNO % Inhn. Plus Copper Observed [1, 3]: 96.9%

Cc1ccccc1C(=O)N/N=C/c1cc(Br)ccc1O [Example 158]
TLB % Control (Phytophthora infestans): 84.7%
inhibition of growth at 0.05 µg/mL [1, 2]: 6.2%
LEPTNO % Inhn. Plus Copper Observed [1, 3]: 96.9%

O=C(N/N=C/c1cc(Br)ccc1O)c1ccccc1Br [Example 160]
TLB % Control (Phytophthora infestans): 65.5%
inhibition of growth at 0.05 µg/mL [1, 2]: 3.4%
LEPTNO % Inhn. Plus Copper Observed [1, 3]: 96.1%

O=C(N/N=C/c1cc(Cl)cc(Br)c1O)c1ccccc1Cl [Example 161]
TLB % Control (Phytophthora infestans): 58.2%
inhibition of growth at 0.05 µg/mL [1, 2]: 7%
LEPTNO % Inhn. Plus Copper Observed [1, 3]: 97.7%

O=C(N/N=C/c1cc(Cl)cc(Br)c1O)c1cccc(Br)c1 [Example 163]
TLB % Control (Phytophthora infestans): 87.7%
inhibition of growth at 0.05 µg/mL [1, 2]: 5.9%
LEPTNO % Inhn. Plus Copper Observed [1, 3]: 98.0%

O=C(N/N=C/c1cc(Cl)cc(Br)c1O)c1ccccc1F [Example 169]
TLB % Control (Phytophthora infestans): 78.9%
inhibition of growth at 0.05 µg/mL [1, 2]: 2.7%
LEPTNO % Inhn. Plus Copper Observed [1, 3]: 98.1%

O=C(N/N=C/c1cc(Br)ccc1O)c1ccccc1Cl [Example 170]
TLB % Control (Phytophthora infestans): 65.5%
inhibition of growth at 0.05 µg/mL [1, 2]: 0%
LEPTNO % Inhn. Plus Copper Observed [1, 3]: 94.5%

O=C(N/N=C/c1cc(Br)ccc1O)c1ccc(Cl)cc1 [Example 171]
TLB % Control (Phytophthora infestans): 15.8%
inhibition of growth at 0.05 µg/mL [1, 2]: 4%
LEPTNO % Inhn. Plus Copper Observed [1, 3]: 98.3%

O=C(N/N=C/c1ccccc1O)c1ccc(Br)cc1 [Example 173]
TLB % Control (Phytophthora infestans): 12.2%
inhibition of growth at 0.05 µg/mL [1, 2]: 8.3%
LEPTNO % Inhn. Plus Copper Observed [1, 3]: 97.7%

Cc1cccc(C(=O)N/N=C/c2ccccc2O)c1 [Example 174]
TLB % Control (Phytophthora infestans): 72.7%
inhibition of growth at 0.05 µg/mL [1, 2]: 0%
LEPTNO % Inhn. Plus Copper Observed [1, 3]: 97.0%

O=C(N/N=C/c1ccccc1O)c1cccc(Cl)c1 [Example 175]
TLB % Control (Phytophthora infestans): 80.0%
inhibition of growth at 0.05 µg/mL [1, 2]: 4.9%
LEPTNO % Inhn. Plus Copper Observed [1, 3]: 97.9%

O=C(N/N=C/c1cc(Br)ccc1O)c1cccc(Cl)c1 [Example 176]
TLB % Control (Phytophthora infestans): 61.4%
inhibition of growth at 0.05 µg/mL [1, 2]: 8.8%
LEPTNO % Inhn. Plus Copper Observed [1, 3]: 98.2%

O=C(N/N=C/c1cc(Cl)ccc1O)c1cccc(Cl)c1 [Example 178]
TLB % Control (Phytophthora infestans): 59.3%
inhibition of growth at 0.05 µg/mL [1, 2]: 8.5%
LEPTNO % Inhn. Plus Copper Observed [1, 3]: 98.3%

Cc1ccc(C(=O)N/N=C/c2cc(Br)ccc2O)cc1 [Example 179]
TLB % Control (Phytophthora infestans): 35.1%
inhibition of growth at 0.05 µg/mL [1, 2]: 18.7%
LEPTNO % Inhn. Plus Copper Observed [1, 3]: 98.0%

Cc1ccc(C(=O)N/N=C/c2cc(Cl)ccc2O)cc1 [Example 180]
TLB % Control (Phytophthora infestans): 43.9%
inhibition of growth at 0.05 µg/mL [1, 2]: 10.8%
LEPTNO % Inhn. Plus Copper Observed [1, 3]: 95.1%

O=C(N/N=C/c1cc(Cl)ccc1O)c1cccc(Br)c1 [Example 181]
TLB % Control (Phytophthora infestans): 90.5%
inhibition of growth at 0.05 µg/mL [1, 2]: 16%
LEPTNO % Inhn. Plus Copper Observed [1, 3]: 97.6%

COc1cccc(C(=O)N/N=C/c2cc(Br)ccc2O)c1 [Example 185]
TLB % Control (Phytophthora infestans): 54.6%
inhibition of growth at 0.05 µg/mL [1, 2]: 0%
LEPTNO % Inhn. Plus Copper Observed [1, 3]: 95.2%

O=C(N/N=C/c1cc(Cl)ccc1O)c1ccc(C(F)(F)F)cc1 [Example 187]
TLB % Control (Phytophthora infestans): 92.7%
inhibition of growth at 0.05 µg/mL [1]: 20.7%
LEPTNO % Inhn. Plus Copper Observed [1, 3]: 97.5%

COc1cccc(C(=O)N/N=C/c2cc(Cl)ccc2O)c1 [Example 188]
TLB % Control (Phytophthora infestans): 74.6%
inhibition of growth at 0.05 µg/mL [1, 2]: 7.9%
LEPTNO % Inhn. Plus Copper Observed [1, 3]: 96.5%

O=C(N/N=C/c1cc(Cl)ccc1O)c1ccccc1Br [Example 190]
TLB % Control (Phytophthora infestans): 70.9%
inhibition of growth at 0.05 µg/mL [1, 2]: 5.6%
LEPTNO % Inhn. Plus Copper Observed [1, 3]: 95.7%

O=C(N/N=C/c1cc(Cl)ccc1O)c1ccc(Br)cc1 [Example 191]
TLB % Control (Phytophthora infestans): 29.8%
inhibition of growth at 0.05 µg/mL [1, 2]: 15.4%
LEPTNO % Inhn. Plus Copper Observed [1, 3]: 98.1%

O=C(N/N=C/c1cc(Cl)cc(Br)c1O)c1cccc(Cl)c1 [Example 192]
TLB % Control (Phytophthora infestans): 84.2%
inhibition of growth at 0.05 µg/mL [1, 2]: 7.8%
LEPTNO % Inhn. Plus Copper Observed [1, 3]: 94.7%

O=C(N/N=C/c1cc(Cl)cc(Br)c1O)c1ccccc1Br [Example 193]
TLB % Control (Phytophthora infestans): 80.0%
inhibition of growth at 0.05 µg/mL [1, 2]: 0%
LEPTNO % Inhn. Plus Copper Observed [1, 3]: 95.1%

Cc1cccc(C(=O)N/N=C/c2cc(Cl)cc(Br)c2O)c1 [Example 194]
TLB % Control (Phytophthora infestans): 80.4%
inhibition of growth at 0.05 µg/mL [1]: 16.1%
LEPTNO % Inhn. Plus Copper Observed [1, 3]: 96.9%

O=C(N/N=C/c1cc([N+](=O)[O-])ccc1O)c1ccc(Cl)cc1 [Example 197]
TLB % Control (Phytophthora infestans): 43.7%
inhibition of growth at 0.05 µg/mL [1, 2]: 0%
LEPTNO % Inhn. Plus Copper Observed [1, 3]: 97.1%

O=C(N/N=C/c1cc(I)cc(I)c1O)c1ccc(Cl)cc1 [Example 198]
TLB % Control (Phytophthora infestans): 75.4%
inhibition of growth at 0.05 µg/mL [1, 2]: 11.8%
LEPTNO % Inhn. Plus Copper Observed [1, 3]: 97.7%

O=C(N/N=C/c1cc(Cl)cc([N+](=O)[O-])c1O)c1ccc(Cl)cc1 [Example 199]
TLB % Control (Phytophthora infestans): 56.1%
inhibition of growth at 0.05 µg/mL [1, 2]: 4%
LEPTNO % Inhn. Plus Copper Observed [1, 3]: 98.0%

COc1ccc(/C=N/NC(=O)c2ccc(Cl)cc2)c(O)c1 [Example 200]
TLB % Control (Phytophthora infestans): 78.9%
inhibition of growth at 0.05 µg/mL [1, 2]: 0%
LEPTNO % Inhn. Plus Copper Observed [1, 3]: 95.0%

Cc1ccc(C(=O)N/N=C/c2cc([N+](=O)[O-])cc(Br)c2O)cc1 [Example 202]
TLB % Control (Phytophthora infestans): 49.1%
inhibition of growth at 0.05 µg/mL [1, 2]: 2%
LEPTNO % Inhn. Plus Copper Observed [1, 3]: 96.6%

COc1cc(Br)cc(/C=N/NC(=O)c2cccc(Cl)c2)c1O [Example 203]
TLB % Control (Phytophthora infestans): 56.4%
inhibition of growth at 0.05 µg/mL [1, 2]: 6.9%
LEPTNO % Inhn. Plus Copper Observed [1, 3]: 95.7%

COc1cc(Br)cc(/C=N/NC(=O)c2ccc(Cl)cc2)c1O [Example 205]
TLB % Control (Phytophthora infestans): 78.9%
inhibition of growth at 0.05 µg/mL [1, 2]: 15.4%
LEPTNO % Inhn. Plus Copper Observed [1, 3]: 97.2%

COc1cc(Br)cc(/C=N/NC(=O)c2ccc(C)cc2)c1O [Example 206]
TLB % Control (Phytophthora infestans): 80.7%
inhibition of growth at 0.05 µg/mL [1, 2]: 16.4%
LEPTNO % Inhn. Plus Copper Observed [1, 3]: 98.4%

C/C(=N\NC(=O)c1ccccc1Cl)c1ccccc1O [Example 212]
TLB % Control (Phytophthora infestans): 14.0%
inhibition of growth at 0.05 µg/mL [1, 2]: 0%
LEPTNO % Inhn. Plus Copper Observed [1, 3]: 95.2%
